Results: patent publication US9512152B2, “Phospholipid compound containing unsaturated fatty acid derivative having cyclopropane ring” (NISHIZAKI BIOINFORMATION RESEARCH INSTITUTE, priority 2013, dated 2016)

Legend:
[1] = system: 3T3L1-GLUT4myc adipocytes having a knocked-down insulin receptor; experiment: GLUT4 trafficking in adipocytes with knocked-down insulin receptor; format: cell-based; settings: 1 μM, 20 min, absence of insulin, FIG. 12
Description: 3T3L1-GLUT4myc adipocytes were incubated in Krebs-Ringer-HEPES buffer [136 mM NaCl, 4.7 mM KCl, 1.25 mM CaCl2, 1.25 mM MgSO4 and 20 mM HEPES, pH 7.5] containing 0.2% (w/v) bovine serum albumin and added with 10 mM glucose at 37° C. for 1 hr. The cells were incubated in the presence or absence of insulin, phospholipid or a derivative thereof for 20 min. Then, the cells were homogenized by sonication in an ice-cooled mitochondria buffer containing 1% (v/v) protease inhibitor cocktail [210 mM mannitol, 70 mM sucrose, and 1 mM ethylenediaminetetraacetic acid (EDTA), 10 mM HEPES, pH 7.5]. Sequentially, the homogenate was centrifuged at 4° C. for 5 min at 3,000 rpm. The supernatant was further centrifuged at 4° C. for 15 min at 11,000 rpm. The recovered supernatant was ultracentrifuged at 4° C. for 60 min at 100,000 g, and separated into a cytoplasm fraction and a cellular membrane fraction. […] The protein concentration of each fraction was measured using BCA protein assay kit (Thermo Fisher Scientific, Waltham, Mass., USA). […] The immunoreactivity was detected using ECL kit (Invitrogen), and visualized using a chemical luminescence detection system (chemiluminescence detection system; GE Healthcare, Piscataway, N.J., USA). The signal density was measured using an image analysis software (Image Gauge software; GE Healthcare). […]

[2] = system: Akt in 3T3L1-GLUT4myc adipocytes; experiment: Akt activation, Western blotting of phospho-Akt (Thr308, Ser473); format: cell-based; settings: diDCP-LA-PE 1 μM, FIG. 4
Description: 3T3L1-GLUT4myc fibroblast strain expressing GLUT4myc was used. The cells are constructed by inserting human c-MYC epitope (14 amino acids) into the first ectodomain. The cells were cultured in Dulbecco's Modified Eagles Medium (DMEM) added with 10% (v/v) bovine serum, penicillin (final concentration, 100 U/ml) and streptomycin (final concentration, 0.1 mg/ml) in a humid environment under 5% CO2 and 95% air at 37° C. When the cells reached confluence (day 0), the medium was exchanged with DMEM added with 10% (v/v) fetal bovine serum (FBS), 1 μM dexamethasone, 0.5 mM 3-isobutyl-methyl-xanthine and 0.1 mg/ml insulin to allow for differentiation from fibroblast into adipocyte. The medium was exchanged with DMEM added with 10% (v/v) FBS on day 3, day 7 and day 11. On day 14, the cells were used for the experiment. […]
For Western blotting, the protein was separated by SDS-polyacrylamide gel electrophoresis (SDS-PAGE), and transferred onto polyvinylidene difluoride membranes. […] The immunoreactivity was detected using ECL kit (GE Healthcare, Piscataway, N.J., USA), and visualized using a chemical luminescence detection system (chemiluminescence detection system; GE Healthcare). The protein concentration of each sample was measured using BCA protein assay kit (Thermo Fisher Scientific, Waltham, Mass., USA).

For `CCCCCC1CC1CC1CC1CCCCCCCC(=O)OC[C@H](COP(=O)(O)OCCN)OC(=O)CCCCCCCC1CC1CC1CC1CCCCC` (some centres unmarked) [diDCP-LA-PE, 1,2-o-bis-[8-{2-(2-pentyl-cyclopropylmethyl)-cyclopropyl}-octanoyl]-sn-glycero-3-phosphatidylethanolamine], the “Transfer of GLUT4 to cellular membrane, insulin receptor knock-down” value [1] was “can promote transfer of GLUT4 to a cellular membrane in an insulin receptor independent manner” and the “Akt activation (phosphorylation of Thr308 and Ser473 relative to total Akt)” value [2] was “has an action to activate Akt”.
